Laboratory results as given in PubChem BioAssay AID248 (DTP/NCI, 2004).
Toxic doses and inconclusive results are not listed. Rule as the data show it: active = T/C of 150% or more; inactive = T/C below 125%.

Tested on: L1210 leukemia ip in BDF1 mice, survival T/C
Assay: NCI In Vivo Anticancer Drug Screen. Data for tumor model L1210 Leukemia (intraperitoneal) in B6D2F1 (BDF1) mice
Conditions: endpoint: mean survival time, higher = longer survival
Procedure, shortened: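 In this screen, tumor-bearing mice given compound are compared to those given vehicle, and their survival values are reported as a treated-to-control quotient.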

[1] = dose: 100.0 mg/kg/injection, schedule: Q01DX001 (ip), vehicle: carboxymethylcellulose (CMC)
[2] = dose: 200.0 mg/kg/injection, schedule: Q01DX001 (ip), vehicle: carboxymethylcellulose (CMC)
[3] = dose: 400.0 mg/kg/injection, schedule: Q01DX001 (ip), vehicle: carboxymethylcellulose (CMC)
[4] = dose: 50.0 mg/kg/injection, schedule: Q01DX009 (ip), vehicle: saline with Tween-80

Measured: T/C

NC(=O)c1cc([N+](=O)[O-])ccc1N1CC[N+](CCCl)=N1
inactive: dose: 100.0 mg/kg/injection, schedule: Q01DX001 (ip), vehicle: saline with Tween-80 100 % of control | dose: 200.0 mg/kg/injection, schedule: Q01DX001 (ip), vehicle: saline with Tween-80 91 % of control | dose: 400.0 mg/kg/injection, schedule: Q01DX001 (ip), vehicle: saline with Tween-80 90 % of control

COc1ccccc1/C=N\NC(=O)c1ccco1
inactive: [1] 95 % of control | [2] 93 % of control | [3] 95 % of control

N#C/C(=C\c1ccco1)C1CCCCC1
inactive: dose: 100.0 mg/kg/injection, schedule: Q04DX002 (ip), vehicle: other 86 % of control | dose: 200.0 mg/kg/injection, schedule: Q04DX002 (ip), vehicle: other 104 % of control

O=C(O)CP(=O)(O)O
inactive: dose: 75.0 mg/kg/injection, schedule: Q04DX003 (ip), vehicle: saline 102 % of control | dose: 150.0 mg/kg/injection, schedule: Q04DX003 (ip), vehicle: saline 102 % of control | dose: 300.0 mg/kg/injection, schedule: Q04DX003 (ip), vehicle: saline 93 % of control

O=C(Nc1ccccc1)OCC(F)(F)F
inactive: dose: 100.0 mg/kg/injection, schedule: Q04DX002 (ip), vehicle: gum acacia 105 % of control | dose: 200.0 mg/kg/injection, schedule: Q04DX002 (ip), vehicle: gum acacia 108 % of control | dose: 400.0 mg/kg/injection, schedule: Q04DX002 (ip), vehicle: gum acacia 101 % of control

Nc1nc(N)nc(-c2ccccn2)n1
inactive: dose: 12.5 mg/kg/injection, schedule: Q01DX009 (ip), vehicle: saline with Tween-80 105 % of control | dose: 25.0 mg/kg/injection, schedule: Q01DX009 (ip), vehicle: saline with Tween-80 92 % of control | [4] 105 % of control

CC(C)=CCC/C(C)=C/C=C1C(=O)NC(=S)NC1=O
inactive: [4] 117 % of control | dose: 100.0 mg/kg/injection, schedule: Q01DX009 (ip), vehicle: saline with Tween-80 103 % of control | dose: 200.0 mg/kg/injection, schedule: Q01DX009 (ip), vehicle: saline with Tween-80 103 % of control

COc1ccc(COC(=O)Nc2ccc(Cl)c(Cl)c2)cc1OC
inactive: dose: 100.0 mg/kg/injection, schedule: Q01DX009 (ip), vehicle: Klucel (hydroxypropylcellulose) (HPC) 95 % of control | dose: 100.0 mg/kg/injection, schedule: Q04DX003 (ip), vehicle: Klucel (hydroxypropylcellulose) (HPC) 101 % of control | dose: 200.0 mg/kg/injection, schedule: Q01DX009 (ip), vehicle: Klucel (hydroxypropylcellulose) (HPC) 88 % of control | dose: 200.0 mg/kg/injection, schedule: Q04DX003 (ip), vehicle: Klucel (hydroxypropylcellulose) (HPC) 106 % of control | dose: 400.0 mg/kg/injection, schedule: Q01DX009 (ip), vehicle: Klucel (hydroxypropylcellulose) (HPC) 95 % of control | dose: 400.0 mg/kg/injection, schedule: Q04DX003 (ip), vehicle: Klucel (hydroxypropylcellulose) (HPC) 90 % of control

CN(C)C(N)=S
inactive: dose: 100.0 mg/kg/injection, schedule: Q01DX009 (ip), vehicle: saline 91 % of control | dose: 200.0 mg/kg/injection, schedule: Q01DX009 (ip), vehicle: saline 100 % of control | dose: 400.0 mg/kg/injection, schedule: Q01DX009 (ip), vehicle: saline 100 % of control

O=C1c2nc3ccccc3cc2CN1Cc1ccccc1
inactive: dose: 10.0 mg/kg/injection, schedule: Q04DX003 (ip), vehicle: alcohol 97 % of control | dose: 20.0 mg/kg/injection, schedule: Q04DX003 (ip), vehicle: alcohol 96 % of control | dose: 40.0 mg/kg/injection, schedule: Q04DX003 (ip), vehicle: alcohol 96 % of control | dose: 80.0 mg/kg/injection, schedule: Q04DX003 (ip), vehicle: alcohol 97 % of control | dose: 160.0 mg/kg/injection, schedule: Q04DX003 (ip), vehicle: alcohol 92 % of control

Cc1cc(N(CCCl)CCCl)ccc1C=Nc1cc(Br)c(O)c(Br)c1
inactive: [1] 96 % of control | [2] 94 % of control | [3] 102 % of control
